Test results: paper PMC12613848, “First in human phase 1 study of DT2216, a selective BCL-xL degrader, in patients with relapsed/refractory solid malignancies” (Journal of Hematology & Oncology, 2025)
Where two headings read alike, the source gives them in different places.

Test: Plasma pharmacokinetics of DT2216 in patients, phase 1 dose escalation
Format: in vivo, human
Settings: human, plasma, iv, plasma; for clearance: read-out: CL (converted); for half-life: read-out: T½ (converted); for Vd: read-out: Vdss; for Tmax: median (min, max)
Method: Dose escalation consisted of the administration of DT2216 intravenously twice weekly at several different doses outlined in protocol attached. The starting dose was 0.04 mg/kg, established based on pre-clinical toxicity studies. Safety was evaluated using CTCAE version 5.0. The initial three dose levels enrolled one patient, following which for dose level 4 and 5, a 3 + 3 design was utilized following a 100% incremental dose increase for dose levels 2 to 5 until the first dose limiting toxicity (DLT) in cycle 1 was observed. Thereafter, a modified Fibonacci sequence was used to define dose escalation increments until the maximum tolerated dose (MTD) was reached as described in protocol. If no dose-limiting toxicity (DLT) was observed during the DLT monitoring period of first 28 days, the next patient was enrolled at the next higher dose level. Dose-limiting toxicities (DLTs) during the first treatment cycle were defined as any Grade 5 toxicity; Grade 4 neutropenia lasting > 7 days; febrile neutropenia; Grade 4 thrombocytopenia or Grade 3 thrombocytopenia with clinically significant hemorrhage or lasting ≥ 7 days; and Grade ≥ 3 non-hematologic toxicities, excluding nausea, vomiting, or diarrhea lasting ≤ 3 days or transient laboratory abnormalities resolving within 72 h. Hepatotoxicity meeting Hy’s law criteria was also considered a DLT. Transient Grade 3–4 electrolyte abnormalities resolving to ≤ Grade 2 within 72 h were not considered DLTs.
Patients were allowed a maximum of two intra-patient dose escalations. Patients received DT2216 by intravenous infusion on days 1 and 4 weekly for at least 4 weeks, with each cycle consisting of a 28-day cycle for a maximum duration of 1 year until disease progression, unacceptable toxicity, or other withdrawal criteria, as listed in the protocol. The extent of disease was evaluated using imaging studies and disease-appropriate tumor markers every 8 weeks from day 1 of the first cycle. RP2D was established based on MTD as well as other relevant data, including clinical signals of activity, PK, and PD data.
Premedication prior to each infusion was at the discretion of the investigator or according to institutional guidelines. Patient assessment and follow-up procedures can be found in the schedule of assessments in this study. The clinical response was evaluated using RECIST v1.1 per protocol. Blood samples were collected for PK analysis before and after post-infusion at defined intervals, along with platelet counts. Exploratory biomarkers include (but are not limited to) the assessment of BCL-XL and VHL levels in peripheral white blood cells (WBC).
Throughout the course of the dose escalation trial, only one dose-limiting toxicity was observed, with grade 4 thrombocytopenia at a dose level of 0.32 mg/kg. […] The pharmacokinetic parameters of DT2216 were determined in patients following doses on Cycle 1 Day 1 and Cycle 1 Day 22 (Tables 4 and 5). […] AUC0-∞ values ranged from 8650 to 72,300 ng · h/mL over the dose range of 0.04 mg/kg 0.4 mg/kg. […] The volume of distribution at steady state (Vss) was small (< 100 mL/kg) and consistent across the dose groups. Following repeated dosing, accumulation of DT2216 in plasma was not observed with twice weekly dosing, with accumulation ratio values ranging from 0.74 to 1.07 on Cycle 1 Day 22 ([…]) across the dose groups.

[1] = 0.12 mg/kg, Cycle 1 Day 22, 0.12 mg/kg IV BIW, mean (CV%), N = 1
[2] = 0.24 mg/kg, Cycle 1 Day 1, 0.24 mg/kg IV, mean (CV%), N = 7
[3] = 0.24 mg/kg, Cycle 1 Day 22, 0.24 mg/kg IV BIW, mean (CV%), N = 6
[4] = 0.32 mg/kg, Cycle 1 Day 1, 0.32 mg/kg IV, mean (CV%), N = 5
[5] = 0.32 mg/kg, Cycle 1 Day 22, 0.32 mg/kg IV BIW, mean (CV%), N = 5
[6] = 0.4 mg/kg, Cycle 1 Day 1, 0.4 mg/kg IV, mean (CV%), N = 4
[7] = 0.4 mg/kg, Cycle 1 Day 22, 0.4 mg/kg IV BIW, mean (CV%), N = 4

Work on `Cc1ncsc1-c1ccc([C@H](C)NC(=O)[C@@H]2C[C@@H](O)CN2C(=O)[C@@H](NC(=O)CCCCCC(=O)N2CCN(CC[C@H](CSc3ccccc3)Nc3ccc(S(=O)(=O)NC(=O)c4ccc(N5CCN(CC6=C(c7ccc(Cl)cc7)CCC(C)(C)C6)CC5)cc4)cc3S(=O)(=O)C(F)(F)F)CC2)C(C)(C)C)cc1` [DT2216] yielded a clearance [1] of 0.138 mL/min/kg, a Cmax (0.12 mg/kg, Cycle 1 Day 22, 0.12 mg/kg IV BIW, mean (CV%), N = 1, read-out: Cmax) of 2190 ng/mL and a half-life [1] of 5.24 h. For the same compound, the Vd [1] was 0.0665 L/kg, the Tmax (0.12 mg/kg, Cycle 1 Day 22, 0.12 mg/kg IV BIW, N = 1) was 2.5 h and the AUC(0-t) (0.24 mg/kg, Cycle 1 Day 1, 0.24 mg/kg IV, mean (CV%), N = 6, read-out: AUC0−24) was 24500 ng·h/mL. The AUC(0-t) (0.24 mg/kg, Cycle 1 Day 1, 0.24 mg/kg IV, mean (CV%), N = 6, read-out: AUClast) was 37600 ng·h/mL, the AUC(0-inf) (0.24 mg/kg, Cycle 1 Day 1, 0.24 mg/kg IV, mean (CV%), N = 7, read-out: AUC0−∞) was 36500 ng·h/mL and the clearance [2] was 0.122 mL/min/kg. For the same compound, the Cmax (0.24 mg/kg, Cycle 1 Day 1, 0.24 mg/kg IV, mean (CV%), N = 7, read-out: Cmax) was 4080 ng/mL, the half-life [2] was 10.4 h and the Vd [2] was 0.0839 L/kg. For the same compound, the Tmax (0.24 mg/kg, Cycle 1 Day 1, 0.24 mg/kg IV, N = 7) was 0.75 h, the AUC(0-t) (0.24 mg/kg, Cycle 1 Day 22, 0.24 mg/kg IV BIW, mean (CV%), N = 6, read-out: AUC0−24) was 26300 ng·h/mL and the AUC(0-inf) (0.24 mg/kg, Cycle 1 Day 22, 0.24 mg/kg IV BIW, mean (CV%), N = 6, read-out: AUC0−∞) was 30100 ng·h/mL. It also gave an AUC(0-t) (0.24 mg/kg, Cycle 1 Day 22, 0.24 mg/kg IV BIW, mean (CV%), N = 6, read-out: AUClast) of 26400 ng·h/mL, a clearance [3] of 0.15 mL/min/kg and a Cmax (0.24 mg/kg, Cycle 1 Day 22, 0.24 mg/kg IV BIW, mean (CV%), N = 6, read-out: Cmax) of 3090 ng/mL. For the same compound, the half-life [3] was 7.27 h, the Vd [3] was 0.0939 L/kg and the Tmax (0.24 mg/kg, Cycle 1 Day 22, 0.24 mg/kg IV BIW, N = 6) was 2.5 h. The AUC(0-inf) (0.32 mg/kg, Cycle 1 Day 1, 0.32 mg/kg IV, mean (CV%), N = 5, read-out: AUC0−∞) was 41500 ng·h/mL, the clearance [4] was 0.132 mL/min/kg and the half-life [4] was 7.09 h. It also gave a Vd [4] of 0.0683 L/kg, an AUC(0-t) (0.32 mg/kg, Cycle 1 Day 1, 0.32 mg/kg IV, mean (CV%), N = 6, read-out: AUC0−24) of 33300 ng·h/mL and an AUC(0-t) (0.32 mg/kg, Cycle 1 Day 1, 0.32 mg/kg IV, mean (CV%), N = 6, read-out: AUClast) of 43200 ng·h/mL. The Cmax (0.32 mg/kg, Cycle 1 Day 1, 0.32 mg/kg IV, mean (CV%), N = 6, read-out: Cmax) was 5710 ng/mL, the Tmax (0.32 mg/kg, Cycle 1 Day 1, 0.32 mg/kg IV, N = 6) was 0.75 h and the AUC(0-t) (0.32 mg/kg, Cycle 1 Day 22, 0.32 mg/kg IV BIW, mean (CV%), N = 5, read-out: AUC0−24) was 32700 ng·h/mL. The AUC(0-inf) (0.32 mg/kg, Cycle 1 Day 22, 0.32 mg/kg IV BIW, mean (CV%), N = 5, read-out: AUC0−∞) was 35000 ng·h/mL, the AUC(0-t) (0.32 mg/kg, Cycle 1 Day 22, 0.32 mg/kg IV BIW, mean (CV%), N = 5, read-out: AUClast) was 32900 ng·h/mL and the clearance [5] was 0.154 mL/min/kg. For the same compound, the half-life [5] was 5.82 h, the Vd [5] was 0.0837 L/kg and the Cmax (0.32 mg/kg, Cycle 1 Day 22, 0.32 mg/kg IV BIW, mean (CV%), N = 6, read-out: Cmax) was 4480 ng/mL. The Tmax (0.32 mg/kg, Cycle 1 Day 22, 0.32 mg/kg IV BIW, N = 6) was 2.5 h, the AUC(0-t) (0.4 mg/kg, Cycle 1 Day 1, 0.4 mg/kg IV, mean (CV%), N = 4, read-out: AUC0−24) was 53000 ng·h/mL and the AUC(0-inf) (0.4 mg/kg, Cycle 1 Day 1, 0.4 mg/kg IV, mean (CV%), N = 4, read-out: AUC0−∞) was 73200 ng·h/mL. The AUC(0-t) (0.4 mg/kg, Cycle 1 Day 1, 0.4 mg/kg IV, mean (CV%), N = 4, read-out: AUClast) was 72300 ng·h/mL, the clearance [6] was 0.0928 mL/min/kg and the Cmax (0.4 mg/kg, Cycle 1 Day 1, 0.4 mg/kg IV, mean (CV%), N = 4, read-out: Cmax) was 8590 ng/mL. It also gave a half-life [6] of 10.7 h, a Vd [6] of 0.0709 L/kg and a Tmax (0.4 mg/kg, Cycle 1 Day 1, 0.4 mg/kg IV, N = 4) of 0.75 h. For the same compound, the AUC(0-t) (0.4 mg/kg, Cycle 1 Day 22, 0.4 mg/kg IV BIW, mean (CV%), N = 4, read-out: AUC0−24) was 53700 ng·h/mL, the AUC(0-inf) (0.4 mg/kg, Cycle 1 Day 22, 0.4 mg/kg IV BIW, mean (CV%), N = 4, read-out: AUC0−∞) was 59500 ng·h/mL and the AUC(0-t) (0.4 mg/kg, Cycle 1 Day 22, 0.4 mg/kg IV BIW, mean (CV%), N = 4, read-out: AUClast) was 54000 ng·h/mL. For the same compound, the clearance [7] was 0.117 mL/min/kg, the Cmax (0.4 mg/kg, Cycle 1 Day 22, 0.4 mg/kg IV BIW, mean (CV%), N = 4, read-out: Cmax) was 6270 ng/mL and the half-life [7] was 6.7 h. It also gave a Vd [7] of 0.0729 L/kg, a Tmax (0.4 mg/kg, Cycle 1 Day 22, 0.4 mg/kg IV BIW, N = 4) of 2.5 h and an AUC(0-inf) (over dose range 0.04 mg/kg to 0.4 mg/kg IV, read-out: AUC0-∞ values) of 8650 to 72300 ng·h/mL. For the same compound, the Cmax (over dose range 0.04 mg/kg to 0.4 mg/kg IV, read-out: mean Cmax values) was 738 to 8590 ng/mL.
